Tests used:
Type in all cases: in vivo
[1] = test system: canarygrass (Phalaris minor); test: Test C pre-/postemergence plant response
How it was run: (§1)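 Ratings ran from 0 (no effect) to 100 (complete control) and were made visually against untreated controls 15–25 days after treatment in a controlled growth environment. Application was preemergence and, for some chemicals, postemergence at the 1- to 4-leaf stage (2–18 cm). Formulation was a non-phytotoxic solvent mixture with surfactant.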

[2] = test system: blackgrass (Alopecurus myosuroides); test: Test C pre-/postemergence plant response
How it was run: as §1

[3] = test system: windgrass (Apera spica-venti); test: Test C pre-/postemergence plant response
How it was run: as §1

[4] = test system: Italian ryegrass (Lolium multiflorum); test: Test C pre-/postemergence plant response
How it was run: as §1

[5] = test system: wild mustard (Sinapis arvensis); test: Test C pre-/postemergence plant response
How it was run: as §1

[6] = test system: downy bromegrass (Bromus tectorum); test: Test C pre-/postemergence plant response
How it was run: as §1

[7] = test system: pigweed (Amaranthus retroflexus); test: Test C pre-/postemergence plant response
How it was run: as §1

[8] = test system: winter wheat (Triticum aestivum); test: Test C pre-/postemergence plant response
How it was run: as §1

[9] = test system: green foxtail (Setaria viridis); test: Test C pre-/postemergence plant response
How it was run: as §1

[10] = test system: wild oat (Avena fatua); test: Test C pre-/postemergence plant response
How it was run: as §1

[11] = test system: spring barley (Hordeum vulgare); test: Test C pre-/postemergence plant response
How it was run: as §1

[12] = test system: spring wheat (Triticum aestivum); test: Test C pre-/postemergence plant response
How it was run: as §1

[13] = test system: winter barley (Hordeum vulgare); test: Test C pre-/postemergence plant response
How it was run: as §1

[14] = test system: annual bluegrass (Poa annua); test: Test C pre-/postemergence plant response
How it was run: as §1

[15] = test system: canarygrass (Phalaris minor); test: Test B postemergence plant response; conditions: for Plant response rating, Canarygrass: Postemergence
How it was run: (§2)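 Visual injury ratings on a 0–100 scale, where 100 means complete control, were made 13 to 15 days after postemergence treatment of greenhouse-grown plants at the 1- to 4-leaf stage.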

[16] = test system: chickweed (Stellaria media); test: Test B postemergence plant response; conditions: for Plant response rating, Chickweed: Postemergence
How it was run: as §2

[17] = Postemergence, 8 g ai/ha, scale 0 to 100, 0 no effect, 100 complete control
[18] = Postemergence, 16 g ai/ha, scale 0 to 100, 0 no effect, 100 complete control
[19] = Postemergence, 31 g ai/ha, scale 0 to 100, 0 no effect, 100 complete control
[20] = Postemergence, 62 g ai/ha, scale 0 to 100, 0 no effect, 100 complete control
[21] = Preemergence, 8 g ai/ha, scale 0 to 100 (0 no effect, 100 complete control)
[22] = Preemergence, 16 g ai/ha, scale 0 to 100 (0 no effect, 100 complete control)
[23] = Preemergence, 31 g ai/ha, scale 0 to 100 (0 no effect, 100 complete control)
[24] = Preemergence, 62 g ai/ha, scale 0 to 100, 0 no effect, 100 complete control
[25] = 8 g ai/ha, postemergence, 0-100 scale
[26] = 31 g ai/ha, scale 0 to 100, 0 no effect, 100 complete control

## CCc1c(C)c(-c2ccc(Cl)cc2)nn1-c1c(O)cnn(C)c1=O [Compound 26, 4-[3-(4-chlorophenyl)-5-ethyl-4-methyl-1H-pyrazol-1-yl]-5-hydroxy-2-methyl-3(2H)-pyridazinone]
[1]; [17]
  Plant response rating, Canarygrass: 25
[1]; [18]
  Plant response rating, Canarygrass: 75
[1]; [19]
  Plant response rating, Canarygrass: 75
[1]; [20]
  Plant response rating, Canarygrass: 100
[1]; [21]
  Plant response rating, Canarygrass: 0
[1]; [22]
  Plant response rating, Canarygrass: 0
[1]; [23]
  Plant response rating, Canarygrass: 65
[1]; [24]
  Plant response rating, Canarygrass: 70
[2]; [17]
  Plant response rating, Blackgrass: 50
[2]; [18]
  Plant response rating, Blackgrass: 50
[2]; [19]
  Plant response rating, Blackgrass: 70
[2]; [20]
  Plant response rating, Blackgrass: 95
[2]; [21]
  Plant response rating, Blackgrass: 20
[2]; [22]
  Plant response rating, Blackgrass: 50
[2]; [24]
  Plant response rating, Blackgrass: 75
[3]; [17]
  Plant response rating, Windgrass: 0
[3]; [18]
  Plant response rating, Windgrass: 0
[3]; [19]
  Plant response rating, Windgrass: 20
[3]; [20]
  Plant response rating, Windgrass: 65
[3]; [21]
  Plant response rating, Windgrass: 30
[3]; [22]
  Plant response rating, Windgrass: 30
[3]; [23]
  Plant response rating, Windgrass: 98
[3]; [24]
  Plant response rating, Windgrass: 100
[4]; [17]
  Plant response rating, Ryegrass, Italian: 70
[4]; [18]
  Plant response rating, Ryegrass, Italian: 85
[4]; [19]
  Plant response rating, Ryegrass, Italian: 95
[4]; [20]
  Plant response rating, Ryegrass, Italian: 100
[4]; [21]
  Plant response rating, Ryegrass, Italian: 15
[4]; [22]
  Plant response rating, Ryegrass, Italian: 75
[4]; [23]
  Plant response rating, Ryegrass, Italian: 100
[4]; [24]
  Plant response rating, Ryegrass, Italian: 100
[5]; [17]
  Plant response rating, Mustard, Wild: 0
[5]; [18]
  Plant response rating, Mustard, Wild: 0
[5]; [21]
  Plant response rating, Mustard, Wild: 0
[5]; [22]
  Plant response rating, Mustard, Wild: 0
[5]; [23]
  Plant response rating, Mustard, Wild: 0
[5]; [24]
  Plant response rating, Mustard, Wild: 0
[6]; [17]
  Plant response rating, Bromegrass, Downy: 0
[6]; [18]
  Plant response rating, Bromegrass, Downy: 0
[6]; [19]
  Plant response rating, Bromegrass, Downy: 0
[6]; [20]
  Plant response rating, Bromegrass, Downy: 0
[6]; [21]
  Plant response rating, Bromegrass, Downy: 0
[6]; [22]
  Plant response rating, Bromegrass, Downy: 0
[6]; [23]
  Plant response rating, Bromegrass, Downy: 0
[6]; [24]
  Plant response rating, Bromegrass, Downy: 20
[7]; [17]
  Plant response rating, Pigweed: 0
[7]; [18]
  Plant response rating, Pigweed: 0
[7]; [19]
  Plant response rating, Pigweed: 0
[7]; [20]
  Plant response rating, Pigweed: 20
[7]; [21]
  Plant response rating, Pigweed: 0
[7]; [22]
  Plant response rating, Pigweed: 0
[7]; [23]
  Plant response rating, Pigweed: 0
[7]; [24]
  Plant response rating, Pigweed: 20
[8]; [17]
  Plant response rating, Wheat, Winter: 0
[8]; [18]
  Plant response rating, Wheat, Winter: 0
[8]; [19]
  Plant response rating, Wheat, Winter: 30
[8]; [20]
  Plant response rating, Wheat, Winter: 35
[8]; [21]
  Plant response rating, Wheat, Winter: 0
[8]; [22]
  Plant response rating, Wheat, Winter: 0
[8]; [23]
  Plant response rating, Wheat, Winter: 0
[8]; [24]
  Plant response rating, Wheat, Winter: 25
[9]; [17]
  Plant response rating, Foxtail, Green: 90
[9]; [18]
  Plant response rating, Foxtail, Green: 95
[9]; [19]
  Plant response rating, Foxtail, Green: 95
[9]; [20]
  Plant response rating, Foxtail, Green: 98
[9]; [21]
  Plant response rating, Foxtail, Green: 0
[9]; [22]
  Plant response rating, Foxtail, Green: 0
[9]; [23]
  Plant response rating, Foxtail, Green: 75
[9]; [24]
  Plant response rating, Foxtail, Green: 100
[10]; [17]
  Plant response rating, Oat, Wild: 70
[10]; [18]
  Plant response rating, Oat, Wild: 98
[10]; [19]
  Plant response rating, Oat, Wild: 98
[10]; [20]
  Plant response rating, Oat, Wild: 100
[10]; [21]
  Plant response rating, Oat, Wild: 0
[10]; [22]
  Plant response rating, Oat, Wild: 15
[10]; [23]
  Plant response rating, Oat, Wild: 65
[10]; [24]
  Plant response rating, Oat, Wild: 75
[11]; [17]
  Plant response rating, Barley, Spring: 0
[11]; [18]
  Plant response rating, Barley, Spring: 0
[11]; [19]
  Plant response rating, Barley, Spring: 35
[11]; [20]
  Plant response rating, Barley, Spring: 50
[11]; [21]
  Plant response rating, Barley, Spring: 0
[11]; [22]
  Plant response rating, Barley, Spring: 0
[11]; [23]
  Plant response rating, Barley, Spring: 25
[11]; [24]
  Plant response rating, Barley, Spring: 35
[12]; [17]
  Plant response rating, Wheat, Spring: 10
[12]; [18]
  Plant response rating, Wheat, Spring: 10
[12]; [19]
  Plant response rating, Wheat, Spring: 30
[12]; [20]
  Plant response rating, Wheat, Spring: 30
[12]; [21]
  Plant response rating, Wheat, Spring: 0
[12]; [22]
  Plant response rating, Wheat, Spring: 0
[12]; [23]
  Plant response rating, Wheat, Spring: 25
[12]; [24]
  Plant response rating, Wheat, Spring: 25
[13]; [17]
  Plant response rating, Barley, Winter: 0
[13]; [18]
  Plant response rating, Barley, Winter: 0
[13]; [19]
  Plant response rating, Barley, Winter: 10
[13]; [20]
  Plant response rating, Barley, Winter: 40
[13]; [21]
  Plant response rating, Barley, Winter: 0
[13]; [22]
  Plant response rating, Barley, Winter: 0
[13]; [23]
  Plant response rating, Barley, Winter: 10
[13]; [24]
  Plant response rating, Barley, Winter: 10
[14]; [17]
  Plant response rating, Bluegrass: 0
[14]; [18]
  Plant response rating, Bluegrass: 0
[14]; [19]
  Plant response rating, Bluegrass: 0
[14]; [20]
  Plant response rating, Bluegrass: 15
[14]; [21]
  Plant response rating, Bluegrass: 0
[14]; [22]
  Plant response rating, Bluegrass: 0
[14]; [23]
  Plant response rating, Bluegrass: 0
[14]; [24]
  Plant response rating, Bluegrass: 0
[15]; [25]
  Canarygrass plant response rating: 10
[15]; 16 g ai/ha, scale 0 to 100
  Plant response rating, Canarygrass: 10
[15]; [26]
  Plant response rating, Canarygrass: 60
[16]; [25]
  Chickweed plant response rating: 0
[16]; 16 g ai/ha, scale 0 to 100
  Plant response rating, Chickweed: 0
[16]; [26]
  Plant response rating, Chickweed: 0
[16]; 62 g ai/ha, scale 0 to 100, 0 no effect, 100 complete control
  Plant response rating, Chickweed: 0

From US20100267561A1, “HERBICIDAL PYRIDAZINONE DERIVATIVES” (priority 2007, published 2010)
